Assay results from article PMC7586344, “Discovery of Novel pERK1/2- or β-Arrestin-Preferring 5-HT1A Receptor-Biased Agonists: Diversified Therapeutic-like versus Side Effect Profile” (Journal of Medicinal Chemistry, 2020).

Columns and labels:
Test in all cases: Off-target binding screen
H2 = target: T1, H2 (Homo sapiens, UniProt P25021); details: 1000 nM, read-out: % Inhibition of Control Specific Binding
T1 construct: Eurofins Pharma Discovery Services (contract assay)

5-HT7 = target: T2, 5-HT7 (Homo sapiens, UniProt P34969); details: read-out: % Inhibition of Control Specific Binding; for inhibition at 1 µM: 1000 nM
T2 construct: Eurofins Pharma Discovery Services (contract screen)
T2 sequence (P34969 whole entry, species assumed): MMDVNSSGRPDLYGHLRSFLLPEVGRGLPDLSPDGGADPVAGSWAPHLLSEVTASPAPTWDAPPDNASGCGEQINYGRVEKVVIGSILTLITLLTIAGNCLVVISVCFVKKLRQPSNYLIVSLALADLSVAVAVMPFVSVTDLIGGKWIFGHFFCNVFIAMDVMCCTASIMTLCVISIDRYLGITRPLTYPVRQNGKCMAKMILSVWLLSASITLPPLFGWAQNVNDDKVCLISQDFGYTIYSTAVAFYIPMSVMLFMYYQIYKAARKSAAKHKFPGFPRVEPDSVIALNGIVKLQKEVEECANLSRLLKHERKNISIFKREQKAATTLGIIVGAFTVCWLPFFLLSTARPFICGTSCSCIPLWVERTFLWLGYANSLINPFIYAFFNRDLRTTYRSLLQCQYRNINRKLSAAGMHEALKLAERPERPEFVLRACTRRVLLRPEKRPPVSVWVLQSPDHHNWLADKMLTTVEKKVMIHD

D4.4 = target: T3, D4.4 (Homo sapiens, UniProt P21917); details: read-out: % Inhibition of Control Specific Binding; for inhibition at 0.001 µM: 1 nM; for inhibition at 0.01 µM: 10 nM; for inhibition at 0.1 µM: 100 nM; for inhibition at 1 µM: 1000 nM
T3 construct: Eurofins Pharma Discovery Services (contract assay)
T3 sequence (P21917 1-419): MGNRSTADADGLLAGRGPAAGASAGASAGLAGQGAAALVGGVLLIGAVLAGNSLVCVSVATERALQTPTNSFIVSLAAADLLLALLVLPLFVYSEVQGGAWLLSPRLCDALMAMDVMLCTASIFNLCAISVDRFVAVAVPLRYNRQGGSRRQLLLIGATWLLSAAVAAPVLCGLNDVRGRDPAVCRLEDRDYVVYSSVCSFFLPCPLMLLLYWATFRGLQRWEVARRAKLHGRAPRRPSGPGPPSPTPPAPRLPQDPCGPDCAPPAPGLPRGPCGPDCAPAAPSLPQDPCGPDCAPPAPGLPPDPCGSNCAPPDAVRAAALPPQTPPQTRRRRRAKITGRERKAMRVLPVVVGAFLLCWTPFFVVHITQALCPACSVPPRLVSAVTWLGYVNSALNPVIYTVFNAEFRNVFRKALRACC

SERT = target: T4, SERT (Homo sapiens, UniProt P31645); details: 1000 nM, read-out: % Inhibition of Control Specific Binding
T4 construct: Eurofins Pharma Discovery Services
T4 sequence (P31645 whole entry, species assumed): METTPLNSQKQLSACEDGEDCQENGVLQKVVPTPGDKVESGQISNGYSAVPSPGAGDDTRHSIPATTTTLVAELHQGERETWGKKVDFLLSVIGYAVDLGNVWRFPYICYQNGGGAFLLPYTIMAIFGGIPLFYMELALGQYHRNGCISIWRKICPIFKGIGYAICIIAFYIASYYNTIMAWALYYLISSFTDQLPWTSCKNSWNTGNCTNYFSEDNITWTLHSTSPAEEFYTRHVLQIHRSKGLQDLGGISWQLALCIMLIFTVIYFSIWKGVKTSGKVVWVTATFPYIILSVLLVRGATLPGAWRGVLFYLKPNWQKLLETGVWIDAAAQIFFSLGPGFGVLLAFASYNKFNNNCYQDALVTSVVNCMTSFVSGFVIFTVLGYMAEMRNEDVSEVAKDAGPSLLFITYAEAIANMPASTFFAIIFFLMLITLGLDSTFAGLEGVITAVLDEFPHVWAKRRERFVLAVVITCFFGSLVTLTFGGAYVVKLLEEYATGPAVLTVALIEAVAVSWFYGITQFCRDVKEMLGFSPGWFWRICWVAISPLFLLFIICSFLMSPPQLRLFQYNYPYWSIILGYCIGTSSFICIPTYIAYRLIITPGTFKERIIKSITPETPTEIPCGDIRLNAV

α1D = target: T5, α1D (Homo sapiens, UniProt P25100); details: read-out: % Inhibition of Control Specific Binding; for inhibition at 0.01 µM: 10 nM; for inhibition at 0.1 µM: 100 nM; for inhibition at 1 µM: 1000 nM
T5 construct: Eurofins Pharma Discovery Services (contract screen)
T5 sequence (P25100 1-572): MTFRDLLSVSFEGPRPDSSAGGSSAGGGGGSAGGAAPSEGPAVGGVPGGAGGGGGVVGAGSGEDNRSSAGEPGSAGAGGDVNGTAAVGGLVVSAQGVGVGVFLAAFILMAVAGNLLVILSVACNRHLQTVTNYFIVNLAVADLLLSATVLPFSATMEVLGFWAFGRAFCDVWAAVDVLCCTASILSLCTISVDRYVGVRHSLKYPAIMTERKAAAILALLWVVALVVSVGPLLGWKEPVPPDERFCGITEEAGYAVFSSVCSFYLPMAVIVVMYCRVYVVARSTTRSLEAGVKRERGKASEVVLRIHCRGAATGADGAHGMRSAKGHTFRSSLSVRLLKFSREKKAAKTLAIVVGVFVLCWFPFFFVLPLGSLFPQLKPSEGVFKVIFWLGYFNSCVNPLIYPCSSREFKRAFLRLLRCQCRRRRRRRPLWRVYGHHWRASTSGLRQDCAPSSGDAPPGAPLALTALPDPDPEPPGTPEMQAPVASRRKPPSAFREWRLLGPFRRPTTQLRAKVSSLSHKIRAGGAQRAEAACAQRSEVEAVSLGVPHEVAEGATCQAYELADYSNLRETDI

BZDp (TSPO) = target: T6, BZDp (TSPO) (Homo sapiens, UniProt P30536); details: 1000 nM, read-out: % Inhibition of Control Specific Binding
T6 construct: Eurofins Pharma Discovery Services (contract assay)
T6 sequence (P30536 whole entry): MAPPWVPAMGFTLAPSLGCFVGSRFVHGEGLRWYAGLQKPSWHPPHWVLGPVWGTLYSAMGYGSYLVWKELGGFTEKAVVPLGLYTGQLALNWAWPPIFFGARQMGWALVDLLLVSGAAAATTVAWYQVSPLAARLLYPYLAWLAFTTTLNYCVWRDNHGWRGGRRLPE

5-HT2C = target: T7, 5-HT2C (Homo sapiens, UniProt P28335); details: 1000 nM, read-out: % Inhibition of Control Specific Binding
T7 construct: Eurofins Pharma Discovery Services (contract screen)
T7 sequence (P28335 33-458): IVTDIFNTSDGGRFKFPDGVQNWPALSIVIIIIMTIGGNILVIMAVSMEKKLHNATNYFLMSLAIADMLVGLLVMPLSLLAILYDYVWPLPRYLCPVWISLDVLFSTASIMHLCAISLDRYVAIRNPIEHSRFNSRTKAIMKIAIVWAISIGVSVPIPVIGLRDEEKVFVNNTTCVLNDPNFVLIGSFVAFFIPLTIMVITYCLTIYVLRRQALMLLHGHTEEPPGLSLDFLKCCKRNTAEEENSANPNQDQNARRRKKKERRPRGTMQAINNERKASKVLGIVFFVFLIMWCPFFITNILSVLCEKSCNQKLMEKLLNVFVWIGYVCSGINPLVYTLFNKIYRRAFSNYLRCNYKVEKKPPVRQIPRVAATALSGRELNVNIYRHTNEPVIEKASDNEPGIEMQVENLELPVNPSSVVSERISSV

β2 = target: T8, β2 (Homo sapiens, UniProt P07550); details: 1000 nM, read-out: % Inhibition of Control Specific Binding
T8 construct: Eurofins Pharma Discovery Services (contract screen)
T8 sequence (P07550 whole entry): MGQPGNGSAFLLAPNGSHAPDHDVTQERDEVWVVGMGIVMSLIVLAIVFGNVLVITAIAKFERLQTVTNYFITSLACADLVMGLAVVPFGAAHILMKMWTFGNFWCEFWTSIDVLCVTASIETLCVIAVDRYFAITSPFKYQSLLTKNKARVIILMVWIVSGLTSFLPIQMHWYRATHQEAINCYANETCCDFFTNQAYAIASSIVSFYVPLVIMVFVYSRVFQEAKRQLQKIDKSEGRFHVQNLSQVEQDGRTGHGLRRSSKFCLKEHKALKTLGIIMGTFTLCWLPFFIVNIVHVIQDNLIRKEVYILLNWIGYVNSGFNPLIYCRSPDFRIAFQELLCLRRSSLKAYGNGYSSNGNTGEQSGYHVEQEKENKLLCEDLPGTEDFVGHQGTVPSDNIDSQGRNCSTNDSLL

µ (MOR) = target: T9, µ (MOR) (Homo sapiens, UniProt P35372); details: read-out: % Inhibition of Control Specific Binding; for inhibition at 1 µM: 1000 nM
T9 construct: Eurofins Pharma Discovery Services (contract assay)
T9 sequence (P35372 whole entry): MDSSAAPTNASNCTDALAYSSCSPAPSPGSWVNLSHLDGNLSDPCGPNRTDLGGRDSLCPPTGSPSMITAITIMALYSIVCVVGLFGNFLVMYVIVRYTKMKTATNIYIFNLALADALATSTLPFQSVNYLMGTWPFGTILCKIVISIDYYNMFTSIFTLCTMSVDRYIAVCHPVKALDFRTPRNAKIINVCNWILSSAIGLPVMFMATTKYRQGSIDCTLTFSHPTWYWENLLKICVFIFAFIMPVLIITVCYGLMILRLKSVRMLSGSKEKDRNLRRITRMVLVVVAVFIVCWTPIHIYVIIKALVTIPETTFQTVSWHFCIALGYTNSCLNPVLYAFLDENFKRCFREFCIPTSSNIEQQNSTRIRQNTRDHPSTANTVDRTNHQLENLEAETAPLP

CB1 = target: T10, CB1 (Homo sapiens, UniProt P21554); details: 1000 nM, read-out: % Inhibition of Control Specific Binding
T10 construct: Eurofins Pharma Discovery Services (contract assay)
T10 sequence (P21554 whole entry, species assumed): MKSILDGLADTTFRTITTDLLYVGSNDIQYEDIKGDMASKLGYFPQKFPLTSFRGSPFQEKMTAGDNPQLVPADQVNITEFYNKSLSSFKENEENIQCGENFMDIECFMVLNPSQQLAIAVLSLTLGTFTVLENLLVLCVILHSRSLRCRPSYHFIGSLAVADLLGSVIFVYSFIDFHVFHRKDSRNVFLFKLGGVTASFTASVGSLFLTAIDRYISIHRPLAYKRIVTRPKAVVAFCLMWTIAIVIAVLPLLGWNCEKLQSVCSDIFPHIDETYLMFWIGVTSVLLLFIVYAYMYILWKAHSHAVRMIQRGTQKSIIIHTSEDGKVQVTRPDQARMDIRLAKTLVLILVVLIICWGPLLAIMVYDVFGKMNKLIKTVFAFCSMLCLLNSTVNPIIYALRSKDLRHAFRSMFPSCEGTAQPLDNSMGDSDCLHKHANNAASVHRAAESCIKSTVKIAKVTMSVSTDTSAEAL

M1 = target: T11, M1 (Homo sapiens, UniProt P11229); details: 1000 nM, read-out: % Inhibition of Control Specific Binding
T11 construct: Eurofins Pharma Discovery Services (contract assay)
T11 sequence (P11229 1-460): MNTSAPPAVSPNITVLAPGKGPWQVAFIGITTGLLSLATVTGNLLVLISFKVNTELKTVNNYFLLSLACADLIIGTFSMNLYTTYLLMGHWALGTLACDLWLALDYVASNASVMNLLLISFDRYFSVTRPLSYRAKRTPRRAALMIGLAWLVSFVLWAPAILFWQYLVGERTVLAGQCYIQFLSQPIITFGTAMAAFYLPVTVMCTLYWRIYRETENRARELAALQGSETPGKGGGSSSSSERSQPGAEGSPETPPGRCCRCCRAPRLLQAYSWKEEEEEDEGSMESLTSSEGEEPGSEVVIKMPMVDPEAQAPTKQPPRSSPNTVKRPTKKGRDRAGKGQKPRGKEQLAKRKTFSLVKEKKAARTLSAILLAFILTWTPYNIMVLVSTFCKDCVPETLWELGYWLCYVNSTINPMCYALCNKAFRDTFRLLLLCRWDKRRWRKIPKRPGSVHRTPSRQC

T1 sequence (P25021 whole entry): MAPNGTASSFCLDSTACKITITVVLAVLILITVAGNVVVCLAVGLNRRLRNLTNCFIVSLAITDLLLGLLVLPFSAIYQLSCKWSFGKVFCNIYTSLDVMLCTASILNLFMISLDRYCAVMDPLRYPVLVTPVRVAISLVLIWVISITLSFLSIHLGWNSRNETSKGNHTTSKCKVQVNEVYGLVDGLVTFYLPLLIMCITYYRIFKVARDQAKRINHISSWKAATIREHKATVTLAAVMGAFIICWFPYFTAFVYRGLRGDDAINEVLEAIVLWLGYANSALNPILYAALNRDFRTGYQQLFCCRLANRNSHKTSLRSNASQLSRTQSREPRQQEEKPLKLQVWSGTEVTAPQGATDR

O=C(c1ccc(F)c(Cl)c1)N1CCC(F)(CNCCOc2ccccc2)CC1 [Compound 3]
inhibition at 1 µM (H2): -15%
inhibition at 1 µM (5-HT7): 30%
inhibition at 0.001 µM (D4.4): -1%
inhibition at 0.01 µM (D4.4): 8%
inhibition at 0.1 µM (D4.4): 59%
inhibition at 1 µM (D4.4): 92%
inhibition at 1 µM (SERT): 8%
inhibition at 0.01 µM (α1D): 19%
inhibition at 0.1 µM (α1D): 40%
inhibition at 1 µM (α1D): 84%
inhibition at 1 µM (BZDp (TSPO)): -10%
inhibition at 1 µM (5-HT2C): -15%
inhibition at 1 µM (β2): 2%
inhibition at 1 µM (µ (MOR)): 26%
inhibition at 1 µM (CB1): -9%
inhibition at 1 µM (M1): -2%

O=C(c1ccc(F)c(Cl)c1)N1CCC(F)(CNCCOc2cccc3[nH]ccc23)CC1 [Compound 56, (4-(((2-((1H-Indol-4-yl)oxy)ethyl)amino)methyl)-4-fluoropiperidin-1-yl)(3-chloro-4-fluorophenyl)methanone]
inhibition at 1 µM (H2): -33%
inhibition at 0.001 µM (5-HT7; 1 nM): 5%
inhibition at 0.01 µM (5-HT7; 10 nM): 32%
inhibition at 0.1 µM (5-HT7; 100 nM): 68%
inhibition at 0.001 µM (D4.4): 9%
inhibition at 0.01 µM (D4.4): 48%
inhibition at 0.1 µM (D4.4): 89%
inhibition at 1 µM (D4.4): 98%
inhibition at 1 µM (SERT): 22%
inhibition at 0.001 µM (α1D; 1 nM): -7%
inhibition at 0.01 µM (α1D): 23%
inhibition at 0.1 µM (α1D): 63%
inhibition at 1 µM (BZDp (TSPO)): -6%
inhibition at 1 µM (5-HT2C): 6%
inhibition at 1 µM (β2): 9%
inhibition at 0.01 µM (µ (MOR); 10 nM): 10%
inhibition at 0.1 µM (µ (MOR); 100 nM): 58%
inhibition at 1 µM (µ (MOR)): 88%
inhibition at 1 µM (CB1): -15%
inhibition at 1 µM (M1): -10%

CNc1ccccc1OCCNCC1(F)CCN(C(=O)c2ccc(F)c(Cl)c2)CC1 [Compound 44, (3-Chloro-4-fluorophenyl)(4-fluoro-4-(((2-(2-(methylamino)phenoxy)ethyl)amino)methyl)piperidin-1-yl)methanone]
inhibition at 1 µM (H2): -28%
inhibition at 1 µM (5-HT7): 11%
inhibition at 0.1 µM (D4.4): 51%
inhibition at 1 µM (D4.4): 90%
inhibition at 1 µM (SERT): 18%
inhibition at 0.01 µM (α1D): -1%
inhibition at 0.1 µM (α1D): 32%
inhibition at 1 µM (α1D): 80%
inhibition at 1 µM (BZDp (TSPO)): -10%
inhibition at 1 µM (5-HT2C): -9%
inhibition at 1 µM (β2): -3%
inhibition at 1 µM (µ (MOR)): 22%
inhibition at 1 µM (CB1): 3%
inhibition at 1 µM (M1): -6%
